System: 217524-143-R1-J4-PDC spheroids with HUVEC/MSC, viability
Assay: Anticancer human tumor 217524-143-R1-J4-PDC patient-derived pancreatic carcinoma cell line growth inhibition [CLK]
Details: for IC50: curve of first compound; for viability, T/C: stronger effect = lower value
Outline: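 Patient-derived tumor cells grown as complex spheroids with HUVEC endothelial cells and mesenchymal stem cells, treated with drug combinations. Concentrations descend in half-log steps from near clinical Cmax, or from 10 microM if Cmax unknown.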

[1] = second compound 0.0316 µM, first compound 0.0316 µM
[2] = second compound 0.0316 µM, first compound 0.1 µM
[3] = second compound 0.0316 µM, first compound 0.316 µM
[4] = second compound 0.0316 µM, first compound 1 µM
[5] = second compound 0.0316 µM, first compound 3.16 µM
[6] = second compound 0.0316 µM, first compound 10 µM
[7] = second compound 0.1 µM, first compound 0.0316 µM
[8] = second compound 0.1 µM, first compound 0.1 µM
[9] = second compound 0.1 µM, first compound 0.316 µM
[10] = second compound 0.1 µM, first compound 1 µM
[11] = second compound 0.1 µM, first compound 3.16 µM
[12] = second compound 0.1 µM, first compound 10 µM
[13] = second compound 0.316 µM, first compound 0.0316 µM
[14] = second compound 0.316 µM, first compound 0.1 µM
[15] = second compound 0.316 µM, first compound 0.316 µM
[16] = second compound 0.316 µM, first compound 1 µM
[17] = second compound 0.316 µM, first compound 3.16 µM
[18] = second compound 0.316 µM, first compound 10 µM
[19] = second compound 1 µM, first compound 0.0316 µM
[20] = second compound 1 µM, first compound 0.1 µM
[21] = second compound 1 µM, first compound 0.316 µM
[22] = second compound 1 µM, first compound 1 µM
[23] = second compound 1 µM, first compound 3.16 µM
[24] = second compound 1 µM, first compound 10 µM
[25] = second compound 3.16 µM, first compound 0.0316 µM
[26] = second compound 3.16 µM, first compound 0.1 µM
[27] = second compound 3.16 µM, first compound 0.316 µM
[28] = second compound 3.16 µM, first compound 1 µM
[29] = second compound 3.16 µM, first compound 3.16 µM
[30] = second compound 3.16 µM, first compound 10 µM
[31] = second compound 10 µM, first compound 0.0316 µM
[32] = second compound 10 µM, first compound 0.1 µM
[33] = second compound 10 µM, first compound 0.316 µM
[34] = second compound 10 µM, first compound 1 µM
[35] = second compound 10 µM, first compound 3.16 µM
[36] = second compound 10 µM, first compound 10 µM
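Also: spheroids exposed to agents for seven days before reading.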
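For viability, T/C in this document: 100% = DMSO vehicle control viability.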

In the case of `CC(C)CC(NC(=O)C(Cc1ccccc1)NC(=O)c1cnccn1)B(O)O` (stereo unspecified) + CNC(=O)c1ccc(Nc2nc(OC3CCCC3)c3c(-c4ccc5nc(C)oc5c4)c[nH]c3n2)c(OC)c1, the IC50 (second compound 0.0316 µM) is reported as 5.06 nM, the IC50 (second compound 0.1 µM) is reported as 3.04 nM and the IC50 (second compound 0.316 µM) is reported as < 0.949 nM. The IC50 (second compound 1 µM) was < 0.949 nM, the IC50 (second compound 3.16 µM) was < 0.949 nM and the IC50 (second compound 10 µM) was < 0.949 nM. It also gave a viability, T/C (second compound 0.0316 µM, first compound 0.000949 µM) of 90.4%, a viability, T/C (second compound 0.0316 µM, first compound 0.003 µM) of 71.8% and a viability, T/C (second compound 0.0316 µM, first compound 0.00949 µM) of 23.7%. For the same compound, the viability, T/C (second compound 0.0316 µM, first compound 0.03 µM) was 6.76%, the viability, T/C (second compound 0.0316 µM, first compound 0.0949 µM) was 3.97% and the viability, T/C (second compound 0.0316 µM, first compound 0.3 µM) was 1.1%. For the same compound, the viability, T/C (second compound 0.1 µM, first compound 0.000949 µM) was 45.6%, the viability, T/C (second compound 0.1 µM, first compound 0.003 µM) was 55.1% and the viability, T/C (second compound 0.1 µM, first compound 0.00949 µM) was 17.5%. It also gave a viability, T/C (second compound 0.1 µM, first compound 0.03 µM) of 5.06%, a viability, T/C (second compound 0.1 µM, first compound 0.0949 µM) of 2.97% and a viability, T/C (second compound 0.1 µM, first compound 0.3 µM) of 1.89%. The viability, T/C (second compound 0.316 µM, first compound 0.000949 µM) was 40.3%, the viability, T/C (second compound 0.316 µM, first compound 0.003 µM) was 47.1% and the viability, T/C (second compound 0.316 µM, first compound 0.00949 µM) was 18.7%. The viability, T/C (second compound 0.316 µM, first compound 0.03 µM) was 4.6%, the viability, T/C (second compound 0.316 µM, first compound 0.0949 µM) was 3.43% and the viability, T/C (second compound 0.316 µM, first compound 0.3 µM) was 2.04%. The viability, T/C (second compound 1 µM, first compound 0.000949 µM) was 29.1%, the viability, T/C (second compound 1 µM, first compound 0.003 µM) was 38.5% and the viability, T/C (second compound 1 µM, first compound 0.00949 µM) was 7.88%. The viability, T/C (second compound 1 µM, first compound 0.03 µM) was 2.84%, the viability, T/C (second compound 1 µM, first compound 0.0949 µM) was 2.06% and the viability, T/C (second compound 1 µM, first compound 0.3 µM) was 1.44%. For the same compound, the viability, T/C (second compound 3.16 µM, first compound 0.000949 µM) was 25.7%, the viability, T/C (second compound 3.16 µM, first compound 0.003 µM) was 41.2% and the viability, T/C (second compound 3.16 µM, first compound 0.00949 µM) was 5.46%. For the same compound, the viability, T/C (second compound 3.16 µM, first compound 0.03 µM) was 2.33%, the viability, T/C (second compound 3.16 µM, first compound 0.0949 µM) was 1.76% and the viability, T/C (second compound 3.16 µM, first compound 0.3 µM) was 1.27%. The viability, T/C (second compound 10 µM, first compound 0.000949 µM) was 24.6%, the viability, T/C (second compound 10 µM, first compound 0.003 µM) was 34.8% and the viability, T/C (second compound 10 µM, first compound 0.00949 µM) was 6.06%. It also gave a viability, T/C (second compound 10 µM, first compound 0.03 µM) of 2.66%, a viability, T/C (second compound 10 µM, first compound 0.0949 µM) of 1.59% and a viability, T/C (second compound 10 µM, first compound 0.3 µM) of 0.75%.
`CC1COCCN1c1cc(C2(S(C)(=N)=O)CC2)nc(-c2ccnc3[nH]ccc23)n1` (stereo unspecified) + CNC(=O)c1ccc(Nc2nc(OC3CCCC3)c3c(-c4ccc5nc(C)oc5c4)c[nH]c3n2)c(OC)c1 was tested, and the IC50 (second compound 0.0316 µM) was 1970 nM, the IC50 (second compound 0.1 µM) was < 31.6 nM and the IC50 (second compound 0.316 µM) was < 31.6 nM. The IC50 (second compound 1 µM) was < 31.6 nM, the IC50 (second compound 3.16 µM) was < 31.6 nM and the IC50 (second compound 10 µM) was < 31.6 nM. For the same compound, the viability, T/C [1] was 85.7%, the viability, T/C [2] was 93.5% and the viability, T/C [3] was 71.4%. It also gave a viability, T/C [4] of 76.3%, a viability, T/C [5] of 31.8% and a viability, T/C [6] of 22.5%. It also gave a viability, T/C [7] of 36.8%, a viability, T/C [8] of 43.5% and a viability, T/C [9] of 37.8%. The viability, T/C [10] was 29.2%, the viability, T/C [11] was 26.5% and the viability, T/C [12] was 19.7%. The viability, T/C [13] was 42.2%, the viability, T/C [14] was 32.4% and the viability, T/C [15] was 34.4%. The viability, T/C [16] was 28.1%, the viability, T/C [17] was 20.1% and the viability, T/C [18] was 15.1%. It also gave a viability, T/C [19] of 29.9%, a viability, T/C [20] of 27.7% and a viability, T/C [21] of 28.9%. For the same compound, the viability, T/C [22] was 18.1%, the viability, T/C [23] was 16.3% and the viability, T/C [24] was 12.3%. For the same compound, the viability, T/C [25] was 26.7%, the viability, T/C [26] was 26% and the viability, T/C [27] was 24.7%. It also gave a viability, T/C [28] of 20.2%, a viability, T/C [29] of 10.9% and a viability, T/C [30] of 9.73%. The viability, T/C [31] was 28.1%, the viability, T/C [32] was 26.4% and the viability, T/C [33] was 21.7%. The viability, T/C [34] was 17.6%, the viability, T/C [35] was 12.9% and the viability, T/C [36] was 8.77%.
With `O=C(c1cc(Cc2n[nH]c(=O)c3ccccc23)ccc1F)N1CCN(C(=O)C2CC2)CC1` + CNC(=O)c1ccc(Nc2nc(OC3CCCC3)c3c(-c4ccc5nc(C)oc5c4)c[nH]c3n2)c(OC)c1 the IC50 (second compound 0.0316 µM) was > 10000 nM, the IC50 (second compound 0.1 µM) was < 31.6 nM and the IC50 (second compound 0.316 µM) was < 31.6 nM. The IC50 (second compound 1 µM) was < 31.6 nM, the IC50 (second compound 3.16 µM) was < 31.6 nM and the IC50 (second compound 10 µM) was < 31.6 nM. It also gave a viability, T/C [1] of 83.2%, a viability, T/C [2] of 82.8% and a viability, T/C [3] of 95.6%. It also gave a viability, T/C [4] of 115%, a viability, T/C [5] of 109% and a viability, T/C [6] of 78.5%. For the same compound, the viability, T/C [7] was 44.3%, the viability, T/C [8] was 40.1% and the viability, T/C [9] was 45.6%. The viability, T/C [10] was 44.1%, the viability, T/C [11] was 46.2% and the viability, T/C [12] was 46.3%. The viability, T/C [13] was 37.4%, the viability, T/C [14] was 42.7% and the viability, T/C [15] was 35.4%. The viability, T/C [16] was 36.1%, the viability, T/C [17] was 38.7% and the viability, T/C [18] was 51.8%. For the same compound, the viability, T/C [19] was 29.4%, the viability, T/C [20] was 30.1% and the viability, T/C [21] was 28%. For the same compound, the viability, T/C [22] was 32.3%, the viability, T/C [23] was 24.2% and the viability, T/C [24] was 25.6%. The viability, T/C [25] was 27%, the viability, T/C [26] was 23.7% and the viability, T/C [27] was 27.8%. For the same compound, the viability, T/C [28] was 26.5%, the viability, T/C [29] was 28.4% and the viability, T/C [30] was 29.4%. It also gave a viability, T/C [31] of 24.7%, a viability, T/C [32] of 29.3% and a viability, T/C [33] of 23.4%. For the same compound, the viability, T/C [34] was 24.6%, the viability, T/C [35] was 30.7% and the viability, T/C [36] was 24.7%.

— PubChem BioAssay AID2060624 (Molecular Pharmacology Branch, DTP, NCI, 2025)
